This is an account of results in US20090019923A1, “Method for measuring octanol-water distribution coefficients of surfactants” (Clariant International Ltd., priority 2007, published 2009).

Several values for one entry are separate records, joined by “and”; a condition that tells them apart may be missing. Equal values may be shown once.

The data set can be described thus: octanol-water distribution coefficient by slow stirring, evaporation/re-dissolution and surface tension vs. concentration calibration curve. The conditions noted are these: for conc. Caq (concentration in the aqueous layer): after equilibration with octanol, initial 1 g/L; for logP: initial 1 g/L in aqueous layer, residue in 0.2 M KCl, single samples of replicates A, B.

Experimental: Aqueous surfactant solution is equilibrated with octanol. The concentration of surfactant in the aqueous phase after equilibration is determined from the surface tension using a calibration curve. Interference from octanol is prevented by first removing it by evaporation and re-dissolution. The concentration of surfactant in the octanol layer is calculated from the change in concentration in the aqueous layer. Alternatively an aliquot of the octanol layer can be evaporated and re-dissolved in water to determine the concentration directly via surface tension.
Preferably, equal or approximately equal volumes of water and octanol are used. The preferred method is stirring slowly for several hours. The minimum stirring time required will depend on the system and can, if necessary, be determined by running experiments with different stirring times. […] The stirring speed must be kept low enough for there to be two distinct phases during the whole course of the experiment. Other types of agitation (e.g. shaking, rolling, vibration) may also be used, provided they are gentle enough to avoid any mixing of the phases.
Evaporating an aliquot of the aqueous phase and re-dissolving the residue in water or electrolyte solution. This removes octanol, which is surface active and would therefore interefere with the subsequent concentration determination via surface tension. It is covenient to take an aliquot of between 1 and 10 mL and re-dissolve in a larger volume of water (20-500 mL).
The surface tension may be measured by any convenient method, for example, the plate, ring or bubble pressure methods. Preferably a method should be used which allows an equilibration time of several minutes e.g. the plate method.
The calibration curve is obtained by measuring the surface tension of the surfactant at various concentrations. Exactly the same procedure should be used as for the re-dissolved residue solution. If an electrolyte solution is used in the dilution step, it must also be used for the calibration curve.
P=Vaq(c0−caq)/(Voctcaq) (2)
P=Vaq(c0−caq)/(Voctcnon-micellised) (3) • For cmc<caq cnon-micellised=cmc • For cmc≧caq cnon-micellised=caq
Equilibration experiment: 100 mL of a 1 g/L aqueous solution of the surfactant and 100 mL octanol were placed in a conical flask. The two-phase system was stirred for eight hours on a magnetic stirrer. The stirring speed (100 rpm) was low enough for there to be two distinct layers. After the stirrer was switched off, the system was allowed to stand overnight. Then a 2 mL sample of the aqueous phase was placed in a tensiometer glass and evaporated to dryness in a drying cabinet. The residue was redissolved in 50 mL of 0.2 M KCl. The surface tension of this solution was measured with the Pt plate method. The solution was then diluted five times with 0.2 M KCl and the surface tension measured again. The concentration of surfactant was determined by comparison with a calibration curve. A duplicate experiment was run to check the reproducibility.
Equilibration experiment: 100 mL of a 1 g/L aqueous solution of the surfactant and 100 mL octanol were placed in a conical flask. The two-phase system was stirred for eight hours on a magnetic stirrer. The stirring speed (100 rpm) was low enough for there to be two distinct layers. After the stirrer was switched off, the system was allowed to stand overnight. Then a 2 mL sample of the aqueous phase was placed in a tensiometer glass evaporated to dryness in a drying cabinet. The residue was redissolved in 50 mL of 0.2 M KCl. The surface tension of this solution was measured with the Pt plate method. The concentration of surfactant was determined by comparison with a calibration curve.

C10-C13 linear alkylbenzene sulfonate gave a Non-micellised surfactant cnon-micellised (aqueous layer at equilibrium, cmc greater than caq) of 0.16 g/L. In addition, under “original concentration 1 g/L, 100 mL water/100 mL octanol, stirred 8 h”, the “Equilibrium concentration in aqueous layer, caq” value stood at 0.16 g/L. Besides, the “Concentation in octanol layer, c0-caq” value (original concentration 1 g/L, from mass balance) amounted to 840 µg/mL.

For the substance C22-amidoamine betaine, the “conc. Caq (concentration in the aqueous layer)” value was 550 µg/mL and 630 µg/mL and 600 µg/mL (dilution factor 25); 570 µg/mL and 590 µg/mL and 630 µg/mL (dilution factor 125). The logP is −0.09 and −0.22 and −0.18 (100 mL water/100 mL octanol, stirred 8 h, dilution factor 25); −0.12 and −0.15 and −0.22 (100 mL water/100 mL octanol, stirred 8 h, dilution factor 125). Besides, the logP mean (initial concentration in the aqueous layer 1 g/L, mean of all samples and dilutions) is given as −0.17.
